# What was measured:
# hCLRN1^N48K-YFP = assay: Hair bundle localization of hCLRN1^N48K-YFP (YFP intensity) in neuromast hair cells of live larvae treated with SERCA inhibitors; assay type: in vivo, zebrafish; parameters: key: “—” = The YFP intensity in the bundle is similar to untreated control.; “+” = The YFP intensity in the bundle is higher compared to untreated control; details: ART 0.25 μM
# [1] = tested on: hCLRN1^N48K-YFP; clrn1^KO/KO larvae; assay: Survival rate of hCLRN1^N48K-YFP; clrn1^KO/KO zebrafish larvae under ART treatment, 6.5 to 27 dpf; assay type: in vivo; details: for Survival rate and swimming behavior beyond 25 dpf: untreated 5%
# Method: (§1) The startle response and swimming behavior of the clrn1^+/+ larvae, clrn1^KO/KO larvae, hCLRN1-YFP; clrn1^KO/KO larvae and hCLRN1^N48K-YFP; clrn1^KO/KO larvae were recorded at 6.5dpf, 10.5dpf, 16.5dpf and 27dpf as described earlier (Table-1). The extracellular microphonics potentials were recorded at 6dpf to confirm the hair cell function in these humanized zebrafish models for hCLRN1 (hCLRN1-YFP; clrn1^KO/KO larvae larvae) and USH3-CLRN1^N48Kmutant (hCLRN1^N48K-YFP; clrn1^KO/KO larvae) as described earlier (FIG. 5).
# (§2) To verify the degree of overall rescue in swimming behavior (hair cell function) and prolongation of life span by ART treatment in the hCLRN1^N48K-YFP; clrn1^KO/KO zebrafish larvae, survival rate, swimming behavior and startle response were observed longitudinally from 6.5 to 27 dpf (Table 1). For this rescue experiment, we followed two regimens of ART treatment. Regimen I, 35 larvae from hCLRN1^N48K-YFP; clrn1^KO/KO genotype were treated with 0.4 uM ART from 3 to 7 dpf (5 days of treatment during inner ear development and hair cell maturation). Regimen II, 20 larvae from hCLRN1^N48K-YFP; clrn1^KO/KO genotype were treated with 0.4 uM ART from 3 to 12 dpf (10 days of treatment overlapping development and post-development of inner ear anatomy and hair cell maturation). At 6.5 dpf, the swimming behavior and startle response of hCLRN1^N48K-YFP; clrn1^KO/KO larvae from ART treatment regimen I and II, were indistinguishable from that of clrn1^+/+ and hCLRN1-YFP; clrn1^KO/KO larvae. About 75% (Regimen I+II: 41 larvae) of ART treated hCLRN1^N48K-YFP; clrn1^KO/KO larvae had clrn1^+/+ equivalent startle response. In regimen I and II, the survival rate and swimming behavior of hCLRN1^N48K-YFP; clrn1^KO/KO larvae beyond 25 dpf shown significant improvement from 5% in untreated hCLRN1^N48K-YFP; clrn1^KO/KO larvae to 40% (n=14) and 45% (n=[…]), respectively. […] Overall, result confirms that ART is not only able to correct the trafficking defect of hCLRN1^N48K protein, but also able to help in normal hair cell functioning of hair cells from hCLRN1^N48K-YFP; clrn1^KO/KO zebrafish and delay onset progressive loss of hair cell function.
# [2] = tested on: hCLRN1^N48K-YFP; clrn1^KO/KO larvae; assay: Startle response and swimming/balance behavior of ART treated hCLRN1^N48K-YFP; clrn1^KO/KO larvae; assay type: in vivo, zebrafish
# Method: as §1
# At 6.5 dpf, clrn1^+/+ larvae often tend to swim towards the middle or closer to surface of the water (E3 medium) in the Petri dish, and escape swiftly from the field of view when startled (by tapping the Petri dish with a metal probe). At 6.5 dpf, hCLRN1^N48K-YFP; clrn1^KO/KO larvae (n=40) were hard to distinguish from clrn1^+/+ larvae in a Petri dish when viewed from the top. […] To monitor hair cell function in the hCLRN1^N48K-YFP; clrn1^KO/KO zebrafish, larvae from several clutch were observed longitudinally from 6.5 to 27 dpf for survival, swimming behavior and startle response (Table 1). […] However, 5% of the hCLRN1^N48K-YFP; clrn1^KO/KO zebrafish do survive long enough to be able to breed like its clrn1^+/+ counterpart. […] In this model, hair cells expressing hCLRN1^N48K retained hair bundle structure and function for a longer duration than clrn1^KO/KO hair cells, consistent with previous report ‘USH3-CLRN1Y176X individuals develop severe hearing loss earlier in life compared with CLRN1^N48K individuals’. This new model for inner ear disorder associated with hCLRN1^N48K mutation will be useful to identify therapeutic agents to prevent progressive loss of hair cell function in USH3-CLRN1^N48K mutant individuals.
# as §2
# [3] = Regimen I: 0.4 μM ART from 3 to 7 dpf, 6.5 dpf
# [4] = Regimen I: 0.4 μM ART from 3 to 7 dpf, 10.5 dpf
# [5] = Regimen I: 0.4 μM ART from 3 to 7 dpf, 15 dpf
# [6] = Regimen I: 0.4 μM ART from 3 to 7 dpf, 16.5 dpf
# [7] = Regimen I: 0.4 μM ART from 3 to 7 dpf, 27 dpf
# [8] = Regimen II: 0.4 μM ART from 3 to 12 dpf, 6.5 dpf
# [9] = Regimen II: 0.4 μM ART from 3 to 12 dpf, 10.5 dpf
# [10] = Regimen II: 0.4 μM ART from 3 to 12 dpf, 15 dpf
# [11] = Regimen II: 0.4 μM ART from 3 to 12 dpf, 16.5 dpf
# [12] = Regimen II: 0.4 μM ART from 3 to 12 dpf, 27 dpf
# [13] = Regimen I: 0.4 μM ART from 3 to 7 dpf
smiles,measurement,setting,value
"C[C@@H]1CC[C@H]2[C@@H](C)C(=O)O[C@@H]3O[C@@]4(C)CC[C@@H]1[C@]32OO4 [ART, Artemisinin]",YFP intensity in the bundle compared to untreated control,hCLRN1^N48K-YFP; exposure 2 h,—
same,YFP intensity in the bundle compared to untreated control,hCLRN1^N48K-YFP; exposure 4 h,—
same,YFP intensity in the bundle compared to untreated control,hCLRN1^N48K-YFP; exposure 8 h,—
same,Survival rate,[1]; [3],(100%)
same,"Survival rate, number of surviving larvae",[1]; [3],35
same,Survival rate,[1]; [4],(85.71%)
same,"Survival rate, number of surviving larvae",[1]; [4],30
same,Survival rate,[1]; [5],(68.57%)
same,"Survival rate, number of surviving larvae",[1]; [5],24
same,Survival rate,[1]; [6],(54.29%)
same,"Survival rate, number of surviving larvae",[1]; [6],19
same,Survival rate,[1]; [7],(40%)
same,"Survival rate, number of surviving larvae",[1]; [7],14
same,Survival rate and swimming behavior beyond 25 dpf,[1]; Regimen I: 0.4 uM ART from 3 to 7 dpf,40%
same,Survival rate,[1]; [8],(100%)
same,"Survival rate, number of surviving larvae",[1]; [8],20
same,Survival rate,[1]; [9],(90%)
same,"Survival rate, number of surviving larvae",[1]; [9],18
same,Survival rate,[1]; [10],(65%)
same,"Survival rate, number of surviving larvae",[1]; [10],13
same,Survival rate,[1]; [11],(65%)
same,"Survival rate, number of surviving larvae",[1]; [11],13
same,Survival rate,[1]; [12],(45%)
same,"Survival rate, number of surviving larvae",[1]; [12],9
same,Survival rate and swimming behavior beyond 25 dpf,[1]; Regimen II: 0.4 uM ART from 3 to 12 dpf,45%
same,Swimming behavior and startle response compared with clrn1^+/+ and hCLRN1-YFP; clrn1^KO/KO larvae,"[2]; ART treatment regimen I and II, 6.5 dpf",indistinguishable
same,Larvae with clrn1^+/+ equivalent startle response,"[2]; Regimen I+II, 0.4 uM ART, 6.5 dpf",About 75%
same,% of abnormal swimming-balance (6.5 dpf),[2]; [13],25.71%
same,% of normal swimming-balance (>25 dpf),[2]; [13],40%
same,% showing startle response at 6.5 dpf,[2]; [13],100%
same,% of normal swimming-balance (>25 dpf),[2]; Regimen II: 0.4 μM ART from 3 to 12 dpf,45%
